Data from patent US20240238299A1, “USE OF PYRROLOPYRIMIDINE COMPOUND” (GUANGZHOU JOYO PHARMATECH CO., LTD, priority 2021, published 2024).

Columns and labels:
BV-2 cells = assay: CTG cell proliferation assay, LPS/IFN-γ-activated BV-2 cells; type: cell-based, Mouse
Method: (§1) Step 1: BV-2 cells in the exponential growth phase were collected, and viable cells were counted using a Vi-Cell XR cell counter. The cell suspension was adjusted to an appropriate concentration with the culture medium. 160 μL of cell suspension was added to each well of a 96-well cell culture plate, resulting in a final cell concentration of 12,000 cells per well. The culture plate was incubated for 24 hours in a 37° C., 5% CO2 incubator.
(§2) Step 2: A 10 mM DMSO compound stock solution was diluted at a ratio of 1:4 using DMSO to prepare a series of 1000× test compound solutions. These 1000× test compound solutions were further diluted at a ratio of 1:100 using cell culture medium to prepare a series of 10× test compound solutions. Finally, the 96-well plate that had been plated with cells the day before was taken out. According to the experimental well plate loading design, 20 μL of the corresponding 10× solution was added to each well, with three duplicate wells for each drug concentration. The final concentrations of the test compounds used in the experiment (i.e., 1× solutions) have a range of 10, 2.5, 0.625, 0.156, 0.0391, 0.0098, and 0.0024 μM. The final DMSO concentration in each well was 0.1%.
(§3) After the compound was added, the 96-well plate was incubated for half an hour in the 37° C., 5% CO2 incubator.
(§4) After the pre-incubation was completed, 20 μL of culture medium containing 100 ng/mL LPS and 100 ng/mL IFN-γ (final concentrations of 10 ng/mL LPS and 10 ng/mL IFN-7) was added to each well to induce the activation of BV-2 cells. The culture plate was then incubated for 24 hours in the 37° C., 5% CO2 incubator.
(§5) Step 3: After 24 hours of treatment with the compound, the culture plate was centrifuged at 1200 rpm for 5 minutes. The supernatant was pipetted into another plate, which was sealed with tinfoil and stored at −20° C. for future ELISA and Griess reagent system assays. The cell culture plate from which the supernatant had been removed was immediately used for cell proliferation assays using the CellTiter-Glo (CTG) method.
Step 4: In the cell culture plate from which the supernatant had been removed, 100 μL of PBS was added to each well. According to the instructions of the CellTiter-Glo (CTG) kit, 50 μL of pre-melted and room-temperature balanced CTG solution was added to each well. The plate was then mixed for 2 minutes using a microplate shaker. After letting it stand at room temperature for 10 minutes, the fluorescence signal value was measured using an Envision 2104 plate reader.
Step 1: Using the CTG fluorescence signal values, the percentage of surviving cells (surviving cells %) at each test concentration relative to the blank (DMSO) group was calculated. The formula was: surviving cells %=fluorescence value of the test concentration group/fluorescence value of the blank group.
Step 2: the percentage of surviving cells was plotted against the logarithm of the compound concentration. Nonlinear regression was used to fit the curve, and the formula “log(inhibitor) vs. response—Variable slope” in the software GraphPad Prism 5 was employed to calculate the IC50 value.
Step 3: The formula for calculating the inhibition rate was: inh. (%)={fluorescence value of the blank group−fluorescence value of the test concentration group}/fluorescence value of the blank (DMSO) group.

[1] = system: mouse CCL5 secretion by BV-2 cell line; assay: CCL5 secretion by LPS/IFN-γ-activated BV-2 cells (ELISA); type: cell-based
Method: as §1, §2, §3
as §4, with “incubator. […]” for “incubator.”
(§6) Step 5 (NO and CCL5 detection): The CCL5 levels in the supernatant were detected using an ELISA kit (Mouse CCL5/RANTES DuoSet ELISA; R&D; DY478-05), following the instructions provided with the kit. The nitric oxide (NO) levels in the supernatant were detected using the Griess Reagent System (Promega; G2930), following the instructions provided with the kit.
(§7) Step 1: Firstly, the optical density values obtained from ELISA and Griess tests were used to plot a standard curve and calculate the absolute concentrations of each sample. The absolute concentration was then calibrated using the CTG fluorescence value corresponding to each sample to obtain the calibrated concentration. The formula for calculating the calibrated concentration was: calibrated concentration=absolute concentration/CTG fluorescence value of the same sample.
Step 2: Based on the calibrated concentration of each sample, the relative percentage of CCL5 or NO secretion (i.e., CCL5 production (%) or NO production (%)) at each test concentration relative to the blank (DMSO) group was calculated. […]

[2] = system: NO secretion by BV-2 cell line; assay: NO secretion by LPS/IFN-γ-activated BV-2 cells (Griess Reagent System); type: cell-based, Mouse
Method: as §1, §2, §3, §4, §5, §6, §7
Step 2: Based on the calibrated concentration of each sample, the relative percentage of CCL5 or NO secretion (i.e., CCL5 production (%) or NO production (%)) at each test concentration relative to the blank (DMSO) group was calculated. The formula for calculating the relative percentage was: relative percentage %=(calibrated concentration of the test concentration group)/(calibrated concentration of the blank group).
Step 3: Finally, the relative percentage of CCL5 secretion or the relative percentage of NO secretion was plotted against the logarithm of the compound concentration. […]

[3] = system: IL-2-induced pSTAT5 in hPBMC; assay: IL-2-induced pSTAT5 in hPBMC (flow cytometry, CD4 positive cells); type: cell-based; conditions: Homo sapiens, 4 ng/mL IL-2, CD4 positive cells
Method: • 1) Preparation of culture medium: 1640 medium+10% fetal bovine serum+1% penicillin/streptomycin+1% non-essential amino acids (all percentages were v/v) • 2) Cells were thawed in a 37° C. water bath and then centrifuged. The cell concentration was adjusted to 5×10^5 cells/mL using the prepared culture medium. • 3) Cell suspension was seeded into a 96-well round-bottom plate at 200 μL/well and incubated at 37° C. for 90 minutes. • 4) Drugs were added, followed by a 37° C. incubation for 30 minutes. • 5) Cells were then stimulated by adding 10 ng/mL of IL-6 or 4 ng/mL of IL-2, followed by a 37° C. incubation for 15 minutes.
• 1) After completing the stimulation, cells were centrifuged and washed once with staining buffer (DPBS+2% bovine serum albumin). Antibodies were then added for a 30-minute staining process at 4° C. […]
• 1) Response %=[(MFI value of drug-treated well−mean MFI value of control well)/(mean MFI value of DMSO well−mean MFI value of control well)]*100% was calculated. • 2) The calculated Response % values were input into GraphPad Prism 8 software. […]

[4] = 24 h co-incubation, up to 10 μM

IC50 ([1]; Mus musculus, BV-2, 24 h co-incubation): 863 nM | IC50 ([2]; Mus musculus, BV-2, 24 h co-incubation, read-out: IC50 on NO secretion by BV-2): 487 nM | IC50 [3]: 36.3 nM
SMILES: CN(c1ncnc2[nH]ccc12)[C@@H]1CCc2cc(C#N)nn2C1 [Compound I]
inhibitory effect on cell proliferation (BV-2 cells; 24 h co-incubation with BV-2, highest test concentration 10 μM): no inhibitory effect on cell proliferation | maximum rate of increase in cell numbers compared to blank (DMSO) well (BV-2 cells; BV-2, 24 h, concentration greater than 0.1 μM): 46.39% | inhibition at up to 10 µM (BV-2 cells; Mus musculus, BV-2, 24 h co-incubation, LPS/IFN-γ, highest concentration 10 μM, read-out: Maximum inhibition rate on BV-2 cell proliferation): -46.4% | Maximum inhibition rate on CCL5 secretion by BV-2 [1, 4]: 80.29% | Maximum inhibition rate on NO secretion by BV-2 [2, 4]: 100%
